{"source": "paper PMC8704606", "about": "“The Artemiside-Artemisox-Artemisone-M1 Tetrad: Efficacies against Blood Stage P. falciparum Parasites, DMPK Properties, and the Case for Artemiside” (Pharmaceutics, 2021)", "key": {"[1]": {"assay": "Cytotoxicity (LDH assay) against HepG2 cells", "format": "cell-based", "settings": "human, HepG2 cells (hepatocellular carcinoma)", "procedure": "Cytotoxicity against mammalian hepatocellular carcinoma cells (HepG2 cells) was determined using the lactate dehydrogenase assay (LDH, Biovision Inc., Milpitas, CA, USA). […] Compound working solutions were prepared from 10 mM stock solutions (100% DMSO) in complete DMEM to a final DMSO (Sigma-Aldrich) conc. of <0.1% (vol/vol). […] Data analysis was performed using GraphPad Prism (version 6) software."}, "[2]": {"assay": "Pharmacokinetics and metabolism after iv and po administration", "format": "in vivo", "settings": "for half-life: mean ± SD, read-out: t½ (converted); for MRT last: read-out: MRT0-last; for AUC(0-t): up to 7 h", "procedure": "The plasma concentration-time profiles of the parent compounds and metabolites after administration iv and po to male C57/BL6 mice are presented in Figure 2, Figure 3 and Figure 4. Artemiside was quantifiable up to 24 h in all mice dosed iv and up to 7 h po (lower limit of quantitation LLOQ = 1.6 ng/mL or 0.004 μM) (Figure 2). […] For both artemiside and artemisox, the metabolite artemisone was quantifiable up to 3 h in both the po and iv groups (Figure 2 and Figure 3). Thereby it is confirmed that artemiside is rapidly converted via artemisox into artemisone. Artemisone itself was quantifiable up to three hours post dose (Figure 4). The mean circulating concentrations for the compounds and their metabolites are presented in Table S3a–f in the Supplementary Material 1. The metabolite M1 was also detected upon administration of artemiside, artemisox, and artemisone, but it was not quantified here; chromatograms indicating the presence of M1 are illustrated in Figure S3a–c in the Supplementary Material 1. In addition, the plasma concentration-time curves for artemiside and its metabolites artemisone and M1 following iv and po dosing in the same murine model are presented and discussed in detail elsewhere (cf. Figure 4 in reference).\nAll work was conducted with prior approval of the animal ethics committee of the University of Cape Town in accordance with the South African National Standards for the Care and Use of Animals for Scientific Purposes and guidelines from the South African Department of Health. The requirements and methods for the pharmacokinetics in vivo involving po and iv drug administration, sample extraction, analyses of samples by LC-MS/MS, and data analyses are described elsewhere. For the animal experiments and formulations, the compounds were dissolved in a 10:60:30 mixture of N,N-dimethylacetamide-polypropylene glycol-polyethylene glycol for intravenous dosing (iv) at 5 mg/kg. For the oral dose (po), compounds were individually dosed as a suspension in 0.5% (w/v) hydroxypropylmethylcellulose in water with 0.2% Tween80 at 50 mg/kg to male C57/BL6 mice (n = 3 for each group). For PK sampling, blood samples were collected at predetermined times (0.08, 0.25, 0.5, 1, 3, 5, 7, and 24 h) for both po and iv dosing via tail bleeding into heparinized tubes, centrifuged, and the plasma samples were stored at −80 °C until extraction. For preparation of samples, the frozen plasma samples were thawed and 15 μL was extracted by liquid–liquid extraction using a universal buffer (pH8) containing 10 ng/mL of the internal standard and ethyl acetate, and the extract was vortexed and centrifuged. Calibration standards and quality controls were extracted following the same procedure. Supernatants were dried down, reconstituted, and injected onto the column for LC-MS/MS analysis using an AB SCIEX 5500 QTRAP instrument coupled to an Agilent 1260 HPLC detection system as previously described."}, "[3]": {"test_system": "CQ-sensitive P. berghei N strain", "settings": "cited from earlier work"}, "[4]": {"test_system": "CQ-resistant P. yoelii NS strain", "settings": "cited from earlier work"}, "Toxoplasma gondii (Tg)": {"test_system": "Toxoplasma gondii (Tg)", "parameters": "method as in PMID 19635951", "settings": "read-out: EC50 against Tg in vitro; cited from earlier work"}, "[5]": {"settings": "male, C57/BL6, mouse, plasma, iv 5 mg/kg, parent drug"}, "[6]": {"settings": "male, C57/BL6, mouse, plasma, po 50 mg/kg, parent drug"}}, "note": "Like-named read-outs stand apart in the source and are kept apart here."}
{"smiles": "C[C@H]1[C@H](N2CCSCC2)O[C@@H]2O[C@@]3(C)CC[C@H]4[C@H](C)CC[C@@H]1[C@@]24OO3", "note": "[Artemiside 5, Artemiside]", "values": [{"measurement": "IC50 at 24 h", "setting": "[1]", "value": "> 50", "unit": "µM"}, {"measurement": "Mean po circulating concentration", "setting": "[2]; 24 h after po 50 mg/kg artemiside 5", "value": "blq"}, {"measurement": "quantifiable/detectable in plasma up to", "setting": "[2]; iv group, parent drug, LLOQ 1.6 ng/mL or 0.004 μM for artemiside", "value": "up to 24 h"}, {"measurement": "concentration at 0.08 h", "setting": "[2]; male, C57/BL6, mouse, plasma, iv, 5 mg/kg, 0.08 h after iv 5 mg/kg artemiside 5, read-out: Mean iv circulating concentration", "value": 6.24, "unit": "µM"}, {"measurement": "concentration at 0.25 h", "setting": "[2]; male, C57/BL6, mouse, plasma, iv, 5 mg/kg, 0.25 h after iv 5 mg/kg artemiside 5, read-out: Mean iv circulating concentration", "value": 3560, "unit": "nM"}, {"measurement": "concentration at 0.5 h", "setting": "[2]; male, C57/BL6, mouse, plasma, iv, 5 mg/kg, 0.5 h after iv 5 mg/kg artemiside 5, read-out: Mean iv circulating concentration", "value": 1710, "unit": "nM"}, {"measurement": "concentration at 1 h", "setting": "[2]; male, C57/BL6, mouse, plasma, iv, 5 mg/kg, 1 h after iv 5 mg/kg artemiside 5, read-out: Mean iv circulating concentration", "value": 930, "unit": "nM"}, {"measurement": "concentration at 3 h", "setting": "[2]; male, C57/BL6, mouse, plasma, iv, 5 mg/kg, 3 h after iv 5 mg/kg artemiside 5, read-out: Mean iv circulating concentration", "value": 180, "unit": "nM"}, {"measurement": "concentration at 5 h", "setting": "[2]; male, C57/BL6, mouse, plasma, iv, 5 mg/kg, 5 h after iv 5 mg/kg artemiside 5, read-out: Mean iv circulating concentration", "value": 86, "unit": "nM"}, {"measurement": "concentration at 7 h", "setting": "[2]; male, C57/BL6, mouse, plasma, iv, 5 mg/kg, 7 h after iv 5 mg/kg artemiside 5, read-out: Mean iv circulating concentration", "value": 37, "unit": "nM"}, {"measurement": "concentration at 24 h", "setting": "[2]; male, C57/BL6, mouse, plasma, iv, 5 mg/kg, 24 h after iv 5 mg/kg artemiside 5, read-out: Mean iv circulating concentration", "value": 8, "unit": "nM"}, {"measurement": "half-life", "setting": "[2]; male, C57/BL6, mouse, plasma, iv, 5 mg/kg, iv 5 mg/kg, parent drug", "value": "72 ± 6", "unit": "min"}, {"measurement": "concentration at 0.08 h", "setting": "[2]; male, C57/BL6, mouse, plasma, po, 50 mg/kg, 0.08 h after po 50 mg/kg artemiside 5, read-out: Mean po circulating concentration", "value": 0.085, "unit": "µM"}, {"measurement": "concentration at 0.25 h", "setting": "[2]; male, C57/BL6, mouse, plasma, po, 50 mg/kg, 0.25 h after po 50 mg/kg artemiside 5, read-out: Mean po circulating concentration", "value": 109, "unit": "nM"}, {"measurement": "concentration at 0.5 h", "setting": "[2]; male, C57/BL6, mouse, plasma, po, 50 mg/kg, 0.5 h after po 50 mg/kg artemiside 5, read-out: Mean po circulating concentration", "value": 135, "unit": "nM"}, {"measurement": "concentration at 1 h", "setting": "[2]; male, C57/BL6, mouse, plasma, po, 50 mg/kg, 1 h after po 50 mg/kg artemiside 5, read-out: Mean po circulating concentration", "value": 119, "unit": "nM"}, {"measurement": "concentration at 3 h", "setting": "[2]; male, C57/BL6, mouse, plasma, po, 50 mg/kg, 3 h after po 50 mg/kg artemiside 5, read-out: Mean po circulating concentration", "value": 58, "unit": "nM"}, {"measurement": "concentration at 5 h", "setting": "[2]; male, C57/BL6, mouse, plasma, po, 50 mg/kg, 5 h after po 50 mg/kg artemiside 5, read-out: Mean po circulating concentration", "value": 12, "unit": "nM"}, {"measurement": "concentration at 7 h", "setting": "[2]; male, C57/BL6, mouse, plasma, po, 50 mg/kg, 7 h after po 50 mg/kg artemiside 5, read-out: Mean po circulating concentration", "value": 6, "unit": "nM"}, {"measurement": "half-life", "setting": "[2]; male, C57/BL6, mouse, plasma, po, 50 mg/kg, po 50 mg/kg, parent drug", "value": "84 ± 2.4", "unit": "min"}, {"measurement": "clearance", "setting": "[2]; male, C57/BL6, mouse, plasma, iv 5 mg/kg", "value": 58.3, "unit": "mL/min/kg"}, {"measurement": "AUC(0-inf)", "setting": "[2]; [5]", "value": "3.9 ± 0.4", "unit": "µM·h"}, {"measurement": "MRT last", "setting": "[2]; male, C57/BL6, mouse, plasma, iv 5 mg/kg, parent drug, 0-last up to 7 h", "value": "1 ± 0.1", "unit": "h"}, {"measurement": "AUC(0-t)", "setting": "[2]; [5]", "value": "3.8 ± 0.5", "unit": "µM·h"}, {"measurement": "Vd", "setting": "[2]; male, C57/BL6, mouse, plasma, iv 5 mg/kg, read-out: Vss", "value": "4.1 ± 0.5", "unit": "L/kg"}, {"measurement": "Cmax", "setting": "[2]; [6]", "value": "130 ± 10", "unit": "nM"}, {"measurement": "MRT last", "setting": "[2]; [6]", "value": "1.9 ± 0.1", "unit": "h"}, {"measurement": "AUC(0-t)", "setting": "[2]; [6]", "value": "0.36 ± 0.06", "unit": "µM·h"}, {"measurement": "MAT (mean absorption time = MRTpo–MRTiv)", "setting": "[2]; po 50 mg/kg", "value": "55.2 ± 12", "unit": "min"}, {"measurement": "quantifiable/detectable in plasma up to", "setting": "[2]; po group, parent drug", "value": "up to 7 h"}, {"measurement": "P. berghei ED90 po", "setting": "[3]; Peters four-day test, mice, oral daily day 0-3, ref S4 (24)", "value": 1.9, "unit": "mg/kg"}, {"measurement": "P. berghei ED90 sc", "setting": "[3]; Peters four-day test, mice, subcutaneous daily day 0-3, ref S4 (24)", "value": 0.51, "unit": "mg/kg"}, {"measurement": "P. berghei artesunate index sc (ED90 artesunate/ED90 compound)", "setting": "[3]; ref S4", "value": 14.1}, {"measurement": "P. yoelii ED90 po", "setting": "[4]; Peters four-day test, mice, oral, ref S4 (24)", "value": 2.0, "unit": "mg/kg"}, {"measurement": "P. yoelii ED90 sc", "setting": "[4]; Peters four-day test, mice, subcutaneous, ref S4 (24)", "value": 0.61, "unit": "mg/kg"}, {"measurement": "P. yoelii artesunate index sc", "setting": "[4]; ref S4", "value": 36.0}, {"measurement": "EC50", "setting": "Toxoplasma gondii (Tg)", "value": 108, "unit": "nM"}]}
